# Experimental data as given in patent EP0536177B1, “THROMBIN INHIBITORS BASED ON THE AMINO ACID SEQUENCE OF HIRUDIN” (MAJESTY (HER) IN RIGHT OF CANADA as represented by THE …, priority 1990, dated 1991).
# Where no end group is shown, it is not given here.
# Tests used:
# human α-thrombin = target: T1, human α-thrombin (Homo sapiens, UniProt P00734); assay: Amidolytic (fluorogenic) assay of thrombin activity, hydrolysis of Tosyl-Gly-Pro-Arg-AMC; assay type: biochemical; conditions: mean of three determinations ± SEM, ni: not inhibited
# T1 construct: the enzyme (human or bovine α-thrombin 0.4 nM)
# Description: Thrombin-catalyzed hydrolysis of Tos-Gly-Pro-Arg-pNA was monitored at 405 nm on a Varian Cary 2000 double beam spectrophotometer using substrate concentrations of 2.5, 3.5, 5 and 10 µM in a final volume of 1mL. The hydrolytic reactions were performed at 25°C in 0.1 M Tris-HCl buffer, pH 7.8, containing 0.1 M NaCl and 0.1% PEG 6000. The reactions were initiated by addition of the substrate dissolved in 0.1 M Tris-HCl buffer, pH 7.8 to a preincubated solution of enzyme (0.4 or 0.04 nM) and variable concentrations of inhibitor dissolved in the same buffer. Initial velocities were recorded and Ki values were determined graphically by weighted linear regression of Dixon plots in the case of competitive inhibition, or by the method of Baici (Baici, 1981) for hyperbolic inhibition. Fluorogenic assays were conducted using the same conditions and instrument as above operating in the fluorescence mode in the Ratio (λex=383 nm, λem=455 nm). Fluorescence intensities were calibrated with 7-amino-4-methyl coumarin solution of known concentration. The specificity of the synthetic peptides of the present invention for human α-thrombin may also be determined by comparing their relative inhibitory activities towards both human α-thrombin and bovine α-thrombin and trypsin by comparing K1 values obtained in the amidolytic assay of thrombin activity.
# bovine α-thrombin = target: T2, bovine α-thrombin (Bos taurus, UniProt P00735); assay: as above; assay type: biochemical; conditions: mean of three determinations ± SEM, ni: not inhibited
# T2 construct: the enzyme (human or bovine α-thrombin 0.4 nM)
# Description: The hydrolytic reactions were performed at 25°C in 0.1 M Tris-HCl buffer, pH 7.8, containing 0.1 M NaCl and 0.1% PEG 6000. The reactions were initiated by addition of the substrate dissolved in 0.1 M Tris-HCl buffer, pH 7.8 to a preincubated solution of enzyme (0.4 or 0.04 nM) and variable concentrations of inhibitor dissolved in the same buffer. […] Fluorescence intensities were calibrated with 7-amino-4-methyl coumarin solution of known concentration.
# [1] = Stability of polypeptides in plasma against proteolysis; assay type: in vitro ADME; conditions: incubation at 37°C in reconstituted normal human plasma with thromboplastin and calcium chloride, pH 7.8 (Figure 3)
# Description: The peptides of this invention were evaluated for in vitro plasma stability against proteolysis.
# 600 µg of peptide was mixed with 250 µl of reconstituted normal human plasma, 250 µl of thromboplastin, 600 µg of calcium chloride and 50 mM NaHPO4 buffer ph 7.8 to a final volume of 900 µl.
# The mixture was incubated at 37°C and 100 µl aliquots were removed at designated time intervals. 20 µl of 10% trichloroacetic acid was added to individual aliquot and centrifuged at 12 X K for 10 minutes. The supernatant was injected on a C18 analytical column and chromatographed by standard elution procedure (i.e. at 60% 0.1% TFA/H2O to 0.1 TFA in CH3CN).
# rats = assay: Antithrombotic activity in the arteriovenous shunt model; assay type: in vivo, rat; conditions: dose which causes a prolongation of the time until occlusion of the shunt by 15 min, 5 min after intravenous administration
# Description: The rat anaesthetized with urethane is fixed in supine position on a temperature-controlled heating plate. The right carotid artery and the left jugular vein are catheterized with short polyethylene catheters (Portex, PE 50). The catheters are filled with physiological saline solution and clamped. The two ends of the catheters are connected with a 2-cm glass capillary (internal diameter 1.0 mm) acting as a thrombogenic surface, 5 min after intravenous administration of the test substance or its solvent (control) the clamps occluding the arteriovenous shunt are opened. The blood flowing through the shunt leads to a rapid rise in temperature of the glass capillary from room temperature to body temperature. The temperature of the capillary serves as an indicator for the patency of the shunt. The temperature is measured by means of a NiCrNi-thermo-couple.
# Antithrombotic effect of P79 compared to recombinant hirudin in the arteriovenous shunt model in rats 5 min. after intravenous administration (n - number of animals used. Results are shown in Table II below. TABLE II
Substance,Ki (human α-thrombin) [µM],Ki (bovine α-thrombin) [µM],proteolysis [1],ED15 (rats) [mg/kg]
"TPKPQSHNDGD [P51, hirudin^45-55]",0.11 ± 0.003,0.72 ± 0.13,,
"[D-Phe^45,Arg^47,ψ(COCH2)CH2CH2CO^47]hirudin^45-65 [P79]",,,minimal or no proteolysis,0.42
